From patent US11452731B2, “Method of treating and preventing loss of cognition” (ENDORECHERCHE, INC., priority 2009, dated 2022)
Structures can show the parent of a compound that is named as a salt. Marks after values point to notes of the source that are not given here.

Tests used:
[1] = 26-week treatment of ovariectomized rats: lumbar spine BMD, total body fat, serum cholesterol, ALP (Example 4, experiment 2); format: in vivo, rat; details: OVX rats, 26 weeks
Description: Ten to twelve week-old female Sprague-Dawley rats (Crl:CD(SD)Br) (Charles River Laboratory, St-Constant, Canada) weighing approximately 220-270 g at start of treatment were used. […] The animals were housed individually and were allowed free access to tap water and a pelleted certified rodent feed (Lab Diet 5002, Ralston Purina, St-Louis, Mo.). Experiments were conducted in an animal facility approved by the Canadian Council on Animal Care (CCAC) and the Association for Assessment and Accreditation of Laboratory Animal Care (AAALAC) in accordance with the CCAC Guide for Care and Use of Experimental Animals. […] Treatments were initiated on day 2 of the study and were performed once daily during 26 weeks. In both experiments, animals not receiving a test article were treated with the appropriate vehicle alone during the same period. […] QDR 4500A, Hologic, Waltham, Mass.) and a Regional High Resolution Scan software. […] Samples were processed for serum preparation and frozen at -80° C. until assay. Serum cholesterol levels and alkaline phospatase activity (ALP) were determined using the Boehringer Mannheim Diagnostic Hitachi 911 Analyzer (Boehringer Mannheim Diagnostic Laboratory Systems).

[2] = system: ZR-75-1 human breast cancer xenografts; experiment: Growth and response of human ZR-75-1 breast tumors in OVX nude mice, 7 antiestrogens for 161 days with or without estrone (Example 8); format: in vivo
Description: ZR-75-1 human breast cancer cells were obtained from the American Type Culture Collection (Rockville, Md.) and cultured in phenol red-free RPMI-1640 medium. […] (Saint-Constant, Québec, Canada). The mice (5 per cage) were housed in vinyl cages equipped with air filter lids, which were kept in laminar airflow hoods and maintained under pathogen-limiting conditions. The photoperiod was 12 hours of light and 12 hours of darkness (lights on at 07:15). Cages, bedding and food (Agway Pro-Lab R-M-H Diet #4018) were autoclaved before use. Water was autoclaved and provided ad libitum. Bilateral ovariectomy was performed under isoflurane-induced anesthesia. […] Randomization and treatments were started one week later. […] The estrone implants were then removed from the animals in the ovariectomized control group (OVX) and in groups that were to receive the antiestrogen alone. […] Tamoxifen was purchased from […]) while toremifene citrate was purchased from Orion (Espoo, Finland). […] The antiestrogen suspensions at the appropriate concentration were prepared each month, stored at 4° C. and used under constant agitation. Powder stock were hermetically stored at 4° C. […] Two perpendicular diameters were recorded and tumor area (mm2) was calculated using the formula: […] Tumor response was assessed at the end of the study or at death of each animal, if it occurred during the course of the experiment. In this case, only data of mice that survived for at least half of the study ([…]) were used in the tumor response analysis.

[3] = system: ZR-75-1 human breast cancer xenografts; experiment: Growth and response of human ZR-75-1 breast tumor xenografts in estrone-supplemented OVX nude mice, DHEA and/or EM-800 for 9.5 months (Example 1); format: in vivo
[4] = Uterine and vaginal weight in ovariectomized BALB/c mice treated orally for 9 days with or without estrone (Example 3); format: in vivo; details: OVX + E1 alone
Description: Female BALB/c mice (BALB/cAnNCrlBR) weighing 18-20 g were obtained from Charles-River, Inc. (St-Constant, Quebec, Canada) and housed 5 per cage in a temperature (23±1° C.)- and light (12 h light/day, lights on at 7:15)-controlled environment. The mice were fed rodent chow and tap water ad libitum. The animals were ovariectomized (OVX) under Isoflurane anesthesia via bilateral flank incisions and randomly assigned to groups of 10 animals. Ten mice were kept intact as controls.
In the second experiment (Table 6), TSE 424 was administered orally by gavage once daily at doses of 1, 3, 10 or 30 μg/animal for 9 days, starting 2 days after ovariectomy. In both experiments, to evaluate the antiestrogenic activity, treatment with estrone (E1, […], s.c. injection, twice daily) was started 5 days post-ovariectomy and was administered for a 6 day-period. Compounds were dissolved in ethanol (4% final concentration) and administered in 0.4% methylcellulose. Mice in the intact and OVX control groups received the vehicle alone (4% ETOH-0.4% methylcellulose) during the 9-day period. The animals were killed by exsanguination at the abdominal aorta on the 11th morning following ovariectomy. The uteri and vagina were rapidly dissected, weighed, and kept in 10% buffered formalin for further histologic examination.

[5] = Uterine, vaginal and body weight in estrone-supplemented OVX nude mice (Example 1); format: in vivo; details: estrone alone
Description: DHEA was dissolved in 50% ethanol 50% propylene glycol. […] Tumors were measured once a week with Vernier calipers.

[6] = 5-week treatment of ovariectomized rats with SERMs alone or with DHEA: BMD of lumbar spine, femur, tibia (Example 5); format: in vivo, rat; details: OVX rats, 5 weeks
Description: (§1) Ten to twelve week-old female Sprague-Dawley rats (Crl:CD(SD)Br) (Charles River Laboratory, St-Constant, Canada) weighing approximately 220-270 g at start of treatment were used. The animals were acclimatized to the environmental conditions (temperature: 22±3° C.; humidity: 50±20%; 12-h light-12-h dark cycles, lights on at 07:15 h) for at least 1 week before starting the experiments. The animals were housed individually and were allowed free access to tap water and a pelleted certified rodent feed (Lab Diet 5002, Ralston Purina, St-Louis, Mo.). Experiments were conducted in an animal facility approved by the Canadian Council on Animal Care (CCAC) and the Association for Assessment and Accreditation of Laboratory Animal Care (AAALAC) in accordance with the CCAC Guide for Care and Use of Experimental Animals.
On day 1 of the study, the animals of the appropriate groups were bilaterally ovariectomized (Ovx) under isoflurane anesthesia. The DHEA was applied topically on the dorsal skin as a solution in 50% ethanol-50% propylene glycol while the tested SERMs were administered as suspension in 0.4% methylcellulose by oral gavage. Treatments were initiated on day 2 of the study and were performed once daily during 5 weeks.
After 5 weeks of treatment, individual rats under Isoflurane anesthesia had their lumbar spine, femur and tibia scanned using dual energy x-ray absorptiometry (DEXA; QDR 4500A, Hologic, Waltham, Mass.) and a Regional High Resolution Scan software. The bone mineral density (BMD) of the lumbar spine (vertebrae L2 to L4), distal femoral metaphysis (DFM) and proximal tibial metaphysis (PTM) were determined.

[7] = system: human Ishikawa cells; experiment: Alkaline phosphatase activity in human endometrial adenocarcinoma Ishikawa cells (Example 6); details: for Emax: read-out: Maximal stimulation of alkaline phosphatase % of 1 nM E2 stimulation
[8] = 12-month treatment of ovariectomized rats with DHEA alone or with Flutamide or EM-800: bone histomorphometry, bone markers, serum lipids; format: in vivo, rat; details: added to DHEA, OVX rats, 12 months
[9] = 3-month treatment of ovariectomized rats: lumbar spine BMD, total body fat, serum cholesterol, ALP (Example 4, experiment 1); format: in vivo, rat; details: OVX rats, 3 months
Description: as §1
On day 1 of the study, the animals of the appropriate groups were bilaterally ovariectomized (OVX) under isoflurane anesthesia. The DHEA was applied topically on the dorsal skin as a solution in 50% ethanol-50% propylene glycol while the other tested compounds were administered as suspension in 0.4% methylcellulose by oral gavage. Treatments were initiated on day 2 of the study and were performed once daily during 3 months.
After 3 months (experiment 1) or 26 weeks (experiment 2) of treatment, individual rats under Isoflurane anesthesia had their whole body skeleton and lumbar spine scanned using dual energy x-ray absorptiometry (DEXA; QDR 4500A, Hologic, Waltham, Mass.) and a Regional High Resolution Scan software. The bone mineral density (BMD) of the lumbar spine (vertebrae L2 to L4) and the total body composition (fat percentage) were determined.
After 3 months (experiment 1) or 26 weeks (experiment 2) of treatment, blood samples were collected at the jugular vein from overnight fasted animals (under Isoflurane anesthesia). Samples were processed for serum preparation and frozen at −80° C. until assay. Serum cholesterol levels and alkaline phospatase activity (ALP) were determined using the Boehringer Mannheim Diagnostic Hitachi 911 Analyzer (Boehringer Mannheim Diagnostic Laboratory Systems).

[10] = Endometrial epithelium thickness in OVX nude mice after 161 days of antiestrogen (Example 8); format: in vivo
Description: The 17 groups included two control groups (OVX and OVX+Estrone), seven groups supplemented with an estrone implant and treated with an antiestrogen and eight other groups that received an antiestrogen alone. The estrone implants were then removed from the animals in the ovariectomized control group (OVX) and in groups that were to receive the antiestrogen alone. […] Tamoxifen was purchased from […]) while toremifene citrate was purchased from Orion (Espoo, Finland). […] The antiestrogen suspensions at the appropriate concentration were prepared each month, stored at 4° C. and used under constant agitation. Powder stock were hermetically stored at 4° C. […] After 161 days of treatment, the remaining animals were anesthetized with isoflurane and killed by exsanguination. […] The uteri were prepared to evaluate endometrial thickness by image analysis performed with Image Pro-Plus (Media Cybernetics, Maryland, USA). […] Hematoxylin- and eosin-stained sections of mice uteri were analyzed. […] Mean epithelial cell height was measured in all animals of each group.

[11] = Premarin 0.25 mg/kg, SERMs 2.5 mg/kg
[12] = Ishikawa cells, 5-day incubation, 1 nM E2
[13] = estrone-supplemented, 50 μg daily, 161 days
[14] = E2 1 mg/kg, EM-652.HCl 2.5 mg/kg, DHEA 80 mg/kg

For `Oc1ccc2c(c1)CC[C@H](c1ccccc1)[C@@H]2c1ccc(OCCN2CCCC2)cc1` (racemic) [Lasofoxifene, (−)-cis-(5R,6S)-6-phenyl-5-[4-(2-pyrrolidin-1-ylethoxy)phenyl]-5,6,7,8-tetrahydronaphthalen-2-ol, D-(−)-tartrate salt], the ALP [1] was 116 ± 9 IU, the “CHOLESTEROL (serum)” value [1] was 0.60 ± 0.02 mmol/L and the “TOTAL FAT” value [1] was 24.1 ± 1.3 %. For the same compound, the “reversal of the fat increase induced by estrogen deficiency” value [1] was 114%, the “LUMBAR SPINE BMD” value [1, 11] was 0.2307 ± 0.0040 g/cm^2 and the “LUMBAR SPINE Prevention of Bone Loss” value [1, 11] was 61%.
In the case of `C[C@]12CC[C@@H]3c4ccc(O)cc4CC[C@H]3[C@@H]1CCC2=O` [E1, estrone], the “increase in ZR-75-1 tumor size” value ([2]; Estrone alone (OVX+E1), 23 weeks) is reported as 707%, the “Category of response: Complete (%)” value ([3]; E1 0.5 μg alone) is reported as 0 (0) % and the “Category of response: Complete (Number)” value ([3]; E1 0.5 μg alone) is reported as 0 (0). The “Category of response: Partial (%)” value ([3]; E1 0.5 μg alone) was 0 (0) %, the “Category of response: Partial (Number)” value ([3]; E1 0.5 μg alone) was 0 (0) and the “Category of response: Progression (%)” value ([3]; E1 0.5 μg alone) was 87.5%. The “Category of response: Progression (Number)” value ([3]; E1 0.5 μg alone) was 14, the “Category of response: Stable (%)” value ([3]; E1 0.5 μg alone) was 12.5% and the “Category of response: Stable (Number)” value ([3]; E1 0.5 μg alone) was 2. For the same compound, the “Category of response: Complete (%)” value ([3]; E1 0.5 μg alone, listed as estrone) was 0%, the “Average tumor weight at end of experiment” value ([3]; estrone 0.5 μg alone (control E1-supplemented OVX mice)) was 1.12 ± 0.26 g and the “increase in ZR-75-1 tumor size” value ([3]; estrone 0.5 μg s.c. daily alone, 291 days (9.5 months)) was 9.4 fold. For the same compound, the “UTERINE WEIGHT” value [4] was 118.3 ± 6.0 mg, the “VAGINAL WEIGHT” value [4] was 53.4 ± 2.8 mg and the UTERINE WEIGHT [5] was 132 ± 8 mg. The VAGINAL WEIGHT [5] was 31 ± 2 mg.
For `Cc1c(-c2ccc(O)cc2)n(Cc2ccc(OCCN3CCCCC3)cc2)c2ccc(O)cc12` [ERA-923, 2-(4-hydroxyphenyl)-3-methyl-1-[[4-[2-(1-piperidinyl)ethoxy]phenyl]methyl]-1H-indol-5-ol], the “DISTAL FEMORAL METAPHYSIS (DFM) BMD” value [6] was 0.2969 ± 0.0029 g/cm^2, the “DISTAL FEMORAL METAPHYSIS (DFM) Prevention of Bone Loss” value [6] was 83% and the “PROXIMAL TIBIAL METAPHYSIS (PFM) BMD” value [6] was 0.2805 ± 0.0034 g/cm^2. The “PROXIMAL TIBIAL METAPHYSIS (PFM) Prevention of Bone Loss” value [6] was 91%, the “LUMBAR SPINE (L2-L4) BMD” value ([6]; SERMs 2.5 mg/kg, DHEA 80 mg/kg) was 0.2214 ± 0.0029 g/cm^2 and the “LUMBAR SPINE (L2-L4) Prevention of Bone Loss” value ([6]; SERMs 2.5 mg/kg, DHEA 80 mg/kg) was 78%. For the same compound, the IC50 ([7]; Homo sapiens, Ishikawa, 120 h, read-out: Inhibition of 1 nM E2-induced stimulation of alkaline phosphatase IC50) was 5.84 nM, the Emax ([7]; Homo sapiens, Ishikawa, 120 h) was 0.6% and the “Maximal inhibition of 1 nM E2-induced stimulation of alkaline phosphatase” value [7, 12] was 100.16 (1).
In the case of `CC(C)C(=O)Nc1ccc([N+](=O)[O-])c(C(F)(F)F)c1` [FLU, Flutamide], the “reversal of the stimulatory effect of DHEA on serum alkaline phosphatase” value [8] is reported as 65%.
For `CC/C(=C(\c1ccccc1)c1ccc(/C=C/C(=O)O)cc1)c1ccccc1` [GW 5638], the “increase of average tumor size over baseline (agonistic effect)” value ([2]; absence of estrone, 200 μg daily, 161 days) was “did not significantly change”, the “average tumor size above pretreatment values” ([2]; estrone-stimulated, 50 μg oral daily, 23 weeks) was 227% and the “progressing tumors, % of tumors” value [2, 13] was 77%. The “progressing tumors, number of total” value [2, 13] was 20 of 26, the “ALP (serum alkaline phosphatase activity)” value [9] was 72 ± 6 IU/L and the “CHOLESTEROL (serum)” value [9] was 1.14 ± 0.08 mmol/L. For the same compound, the “TOTAL FAT” value [9] was 21.9 ± 1.4 %, the “LUMBAR SPINE BMD” value [9, 14] was 0.2299 ± 0.0060 g/cm^2 and the “LUMBAR SPINE Prevention of Bone Loss” value [9, 14] was 34%. For the same compound, the “inhibition of the stimulatory effect of estrone on epithelial height” value ([10]; 50 μg daily oral, estrone stimulation) was 24%, the “height of uterine epithelial cells, % of the OVX control group value” ([10]; 200 μg daily, absence of estrone) was 121% and the “ENDOMETRIAL EPITHELIUM THICKNESS (μm) ± SEM” value ([10]; OVX + E1, antiestrogen 50 μg daily) was 35.30^b,d ± 0.07 μm. The “ENDOMETRIAL EPITHELIUM THICKNESS (μm) ± SEM” value ([10]; OVX without E1, antiestrogen 200 μg daily) was 22.22^a ± 0.05 μm, the Emax ([7]; Homo sapiens, Ishikawa, 120 h) was 7.75 ± 5.5% and the “Inhibition of 1 nM E2-induced stimulation of alkaline phosphatase IC50” value [7, 12] was “No inhibition”.
